Laboratory results published in publication PMC3034772 (Pharmaceutical research, 2010).
Several values for one entry are separate records, joined by “and”; a condition that tells them apart may be missing. Equal entries are not always repeated. Where two headings read alike, the source gives them in different places.

Key:
[1] = Charge class Q, dominant calculated charge state at pH 7.4; assay type: physicochemical
[2] = In combo PAMPA-BBB model, calculated log Po in situ
[3] = PAMPA; for Pm^7.4: pH 7.4
[4] = cited from earlier work
[5] = for Pm^7.4: pH 7.4
[6] = mouse, in vivo
[7] = in vivo
[8] = mouse, in vivo; cited from earlier work
[9] = cited from earlier work; remark: listed apart in the source
[10] = physchem
[11] = physchem; remark: listed apart in the source
[12] = In situ brain perfusion, individual literature values; settings: efflux inhibition CsA; from literature PS
[13] = dominant calculated concentration fraction of the drug in a charge state
[14] = difference observed minus calculated, external set, no efflux inhibition

Row | SMILES | Q (charge class) [1, 13] | log PABL [3] | log Po [3] | log Ppara [3] | Pm^7.4 [3] | obs–calc (log Po^in situ) [2, 14] | further results
1 | COc1ccc(CCN2CCC(Nc3nc4ccccc4n3Cc3ccc(F)cc3)CC2)cc1 [Astemizole] | + | −3.54 | −1.39 | −6.54 | 2422 |  | obs–calc (log Po^in situ) ([2]; efflux inhibition mdr1a(−/−)): −1.2; obs–calc (log Po^in situ) ([2]; no efflux inhibition): −1.3; pKa ([4]; ref [46]): 8.60; pKa ([4]; second pKa column, ref [46]): 5.84
2 | CCC12CCN(CC3(O)CC3)C(Cc3ccc(O)cc31)C2(C)C (stereo not drawn) [Bremazocine] |  |  |  |  |  |  | Q (charge class) [1]: +; obs–calc (log Po^in situ) [2]: 0.4 and 0.2; log Po ([5]; PAMPA-BBB intrinsic permeability, Type I, collected under 1.5 μL conditions but scaled to the 3 μL level): −2.87; log PABL ([5]; aqueous boundary layer permeability, Type I, 1.5 μL conditions): −3.00; log Po^in situ (obs) [6]: −2.76; log Po^in situ (obs) [7]: −2.96; PS [8]: 129 10^−4 mLg^−1s^−1; log PS [8]: −1.89; PS ([9]; in vivo): 81 10^−4 mLg^−1s^−1; log PS ([9]; in vivo): −2.09
3 | O=C1CC2(CCCC2)CC(=O)N1CCCCN1CCN(c2ncccn2)CC1 [Buspirone] | + |  |  |  |  |  | pKa ([10]; pKa): 7.59
4 | COc1cccc2c1C(=O)c1c(O)c3c(c(O)c1C2=O)C[C@@](O)(C(C)=O)C[C@@H]3O[C@H]1C[C@H](N)[C@H](O)[C@H](C)O1 [Daunomycin] |  | −4.38 | −2.71 | −6.91 | 10 |  | Q (charge class) [1]: +; obs–calc (log Po^in situ) [2]: 0.8; pKa ([4]; ref [39]): 12.00; pKa ([4]; second pKa column, ref [39]): 9.70
5 | CC(C)[C@H](NC(=O)[C@H](CCC(=O)O)NC(=O)[C@H](Cc1ccccc1)NC(=O)[C@@H](C)NC(=O)[C@@H](N)Cc1ccc(O)cc1)C(=O)N[C@H](C(=O)NCC(N)=O)C(C)C [Deltorphin II] |  |  |  |  |  |  | log Po ([5]; PAMPA): −6.51; Pm^7.4 ([5]; PAMPA): <0.01; log Po^in situ (obs) [6]: −6.36; log Po^in situ (obs) [7]: −6.56; PS [8]: 0.4 10^−4 mLg^−1s^−1; log PS [8]: −4.36; PS ([9]; in vivo): 0.3 10^−4 mLg^−1s^−1; log PS ([9]; in vivo): −4.56
6 | O=c1[nH]c2ccccc2n1CCCN1CCC(n2c(=O)[nH]c3cc(Cl)ccc32)CC1 [Domperidone] | + |  |  |  |  |  | pKa [11]: 9.38; PS [8]: 16 10^−4 mLg^−1s^−1; PS ([9]; in vivo): 5 10^−4 mLg^−1s^−1; log PS ([9]; in vivo): −3.29
7 | CN(C)CCC=C1c2ccccc2COc2ccccc21 [Doxepin] | + | −3.13 | −1.60 | −6.47 | 223 |  | obs–calc (log Po^in situ) ([2]; no efflux inhibition): 0.3; pKa ([4]; ref [11]): 9.45
8 | CN1C[C@H](C(=O)N[C@]2(C)O[C@@]3(O)[C@@H]4CCCN4C(=O)[C@H](Cc4ccccc4)N3C2=O)C=C2c3cccc4[nH]cc(c34)C[C@H]21 [Ergotamine] |  | −3.73 | −2.50 | −6.03 | 1823 |  | Q (charge class) [1]: 0; obs–calc (log Po^in situ) [2]: 0.1; pKa [11]: 9.49; log Po^in situ (obs) [7]: −3.82; PS ([9]; in vivo): 87 10^−4 mLg^−1s^−1; log PS ([9]; in vivo): −2.06
9 | CC(C)(C)NC(=O)[C@@H]1CN(Cc2cccnc2)CCN1C[C@@H](O)C[C@@H](Cc1ccccc1)C(=O)N[C@H]1c2ccccc2C[C@H]1O [Indinavir] | 0 |  |  |  |  | −0.4 | obs–calc (log Po^in situ) ([2]; efflux inhibition mdr1a(−/−)): 0.3; log Po ([5]; PAMPA): −5.17; pKa ([4]; ref [11]): 4.91
10 | N[C@@H](Cc1ccc(O)c(O)c1)C(=O)O [L-DOPA] | ± | −4.47 | −7.81 |  | 0.01 | 0.7 and 0.9 | pKa ([4]; ref [39]): 8.77
11 | CN(C)C(=O)C(CCN1CCC(O)(c2ccc(Cl)cc2)CC1)(c1ccccc1)c1ccccc1 [Loperamide] |  | −3.19 | −2.67 | −12 | 102 |  | Q (charge class) [1]: +; log Po^in situ (obs) [6]: −2.52
12 | N[C@@H](Cc1ccc(N(CCCl)CCCl)cc1)C(=O)O [Melphalan] |  | −4.65 | −7.51 | −7.71 | 0.03 |  | Q (charge class) [1]: ±; obs–calc (log Po^in situ) [2]: 0.0; log Po^in situ (obs) [7]: −5.27; PS ([9]; in vivo): 5 10^−4 mLg^−1s^−1; log PS ([9]; in vivo): −3.28
13 | CN1CCCCC1CCN1c2ccccc2Sc2ccc([S+](C)[O-])cc21 (stereo not drawn) [Mesoridazine] | + | −3.26 | −4.33 | −6.21 | 14 | 0.8 | pKa ([10]; pKa): 7.79
14 | CN(Cc1cnc2nc(N)nc(N)c2n1)c1ccc(C(=O)N[C@@H](CCC(=O)O)C(=O)O)cc1 [Methotrexate] | ± |  |  |  |  |  | log PABL ([5]; PAMPA): −4.73; Pm^7.4 ([5]; PAMPA): 0.001; pKa ([10]; pKa): 5.55
15 | Oc1ccc2c3c1O[C@H]1c4[nH]c5ccccc5c4C[C@@]4(O)[C@@H](C2)N(CC2CC2)CC[C@]314 [Naltrindole] |  |  | −2.23 | −6.20 | 659 |  | Q (charge class) [1]: +; log Po^in situ (obs) [6]: −3.03; PS [8]: 104 10^−4 mLg^−1s^−1; log PS [8]: −1.98
16 | NNCCc1ccccc1 [Phenelzine] | + | −4.58 | −2.20 | −6.86 | 2236 | −1.9 | pKa [11]: 7.66
17 | COc1cc2nc(N3CCN(C(=O)c4ccco4)CC3)nc(N)c2cc1OC [Prazosin] |  |  |  |  |  |  | pKa ([10]; pKa): 6.79
18 | CCCN(CCC)S(=O)(=O)c1ccc(C(=O)O)cc1 [Probenecid] | − | −3.52 | −2.97 | −6.10 | 0.06 |  | obs–calc (log Po^in situ) ([2]; efflux inhibition mdr1a(−/−)): −0.6; obs–calc (log Po^in situ) ([2]; no efflux inhibition): −0.7; pKa ([4]; ref [38]): 3.16
19 | OCCOCCN1CCN(C2=Nc3ccccc3Sc3ccccc32)CC1 [Quetiapine] | 0 | −3.88 | −2.98 | −6.02 | 583 | 0.2 | pKa ([4]; ref [38]): 7.30; pKa ([4]; second pKa column, ref [38]): 2.27
20 | CC(C)c1nc(CN(C)C(=O)N[C@H](C(=O)N[C@@H](Cc2ccccc2)C[C@H](O)[C@H](Cc2ccccc2)NC(=O)OCc2cncs2)C(C)C)cs1 [Ritonavir] | 0 |  |  |  |  | −0.7 and −0.6 | obs–calc (log Po^in situ) ([2]; efflux inhibition mdr1a(−/−)): 0.0 and 0.2; log Po ([5]; PAMPA): −4.24; Pm^7.4 ([5]; PAMPA): 57; pKa ([10]; pKa): 2.42
21 | CCCN1C[C@H](C)N([C@H](c2ccc(C(=O)N(CC)CC)cc2)c2cccc(OC)c2)C[C@H]1C [SNC121] |  |  |  |  |  |  | Q (charge class) [1]: +; log Po ([5]; PAMPA): −2.91; Pm^7.4 ([5]; PAMPA): 201; log Po^in situ (obs) [6]: −2.96; PS [8]: 363 10^−4 mLg^−1s^−1; log PS [8]: −1.44
22 | CNS(=O)(=O)Cc1ccc2[nH]cc(CCN(C)C)c2c1 [Sumatriptan] | + | −4.65 | −4.86 | −7.51 | 0.4 | 0.0 | pKa [11]: 9.64
23 | CC(C)(C)c1ccc(C(O)CCCN2CCC(C(O)(c3ccccc3)c3ccccc3)CC2)cc1 (stereo not drawn) [Terfenadine] | + | −3.76 | −0.54 | −5.70 |  | −0.9 | obs–calc (log Po^in situ) ([2]; efflux inhibition CsA): 0.0; log PS ([9]; efflux inhibition CsA): −1.39; log Po^in situ (obs) [12]: −0.92
24 | CSc1ccc2c(c1)N(CCC1CCCCN1C)c1ccccc1S2 (stereo not drawn) [Thioridazine] | + | −2.84 | −1.27 | −6.23 | 1972 |  | obs–calc (log Po^in situ) ([2]; no efflux inhibition): −0.8; pKa ([4]; ref [11]): 8.82
25 | O=c1n(CCCN2CCN(c3cccc(Cl)c3)CC2)nc2ccccn12 [Trazodone] | 0 | −3.90 | −2.94 | −5.99 | 534 |  | obs–calc (log Po^in situ) ([2]; no efflux inhibition): 0.0; pKa [11]: 7.46
26 | CN1CCN(CCCN2c3ccccc3Sc3ccc(C(F)(F)F)cc32)CC1 [Trifluoperazine] | + | −3.32 | −1.96 | −5.94 | 1442 | −1.1 | pKa [11]: 8.22
27 | CC(=O)CC(c1ccccc1)c1c(O)c2ccccc2oc1=O (stereo not drawn) [Warfarin] | − | −3.04 | −3.21 | −8.00 | 1.4 |  | obs–calc (log Po^in situ) [2]: 0.4 and 0.5; pKa [10]: 4.75
28 | Cc1cn([C@H]2C[C@H](N=[N+]=[N-])[C@@H](CO)O2)c(=O)[nH]c1=O [Zidovudine] | 0 |  |  |  |  |  | log Po ([5]; PAMPA): −6.24; pKa ([10]; pKa): 9.61
29 | N[C@H](Cc1ccc(F)cc1)C(=O)O [p-F-Phenylalanine(D)] |  |  |  |  |  |  | log Po^in situ (obs) [6]: −4.81; log Po^in situ (obs) [7]: −4.84; PS ([9]; in vivo): 14 10^−4 mLg^−1s^−1; log PS ([9]; in vivo): −2.85
30 | N[C@@H](Cc1ccc(F)cc1)C(=O)O [p-F-Phenylalanine(L)] |  |  |  |  |  |  | log Po^in situ (obs) [6]: −3.45; PS [8]: 347 10^−4 mLg^−1s^−1; log PS [8]: −1.46
